pIC50: −log10 of the molar value.
Molecular target: T1, Chk1 (Homo sapiens, UniProt O14757)
T1 construct: purchased Upstate Biotechnology
T1 sequence (O14757 1-476): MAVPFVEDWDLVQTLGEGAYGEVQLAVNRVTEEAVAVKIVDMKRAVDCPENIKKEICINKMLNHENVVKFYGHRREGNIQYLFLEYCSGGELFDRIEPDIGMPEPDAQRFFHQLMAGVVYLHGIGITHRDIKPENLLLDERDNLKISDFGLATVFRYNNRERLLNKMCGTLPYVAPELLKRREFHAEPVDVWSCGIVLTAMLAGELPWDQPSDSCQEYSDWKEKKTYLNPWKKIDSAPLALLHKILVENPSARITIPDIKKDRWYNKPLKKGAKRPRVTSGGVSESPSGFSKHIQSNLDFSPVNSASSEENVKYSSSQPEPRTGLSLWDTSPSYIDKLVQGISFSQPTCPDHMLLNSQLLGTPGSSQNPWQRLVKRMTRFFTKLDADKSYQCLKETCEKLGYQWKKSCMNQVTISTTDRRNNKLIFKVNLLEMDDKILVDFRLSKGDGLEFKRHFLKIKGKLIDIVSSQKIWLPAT
Assay: Chk1 kinase assay: incorporation of γ-33P ATP into immobilized myelin basic protein
Type: biochemical
Details: Table 11; Chk1 only; read-out: Chk1 IC50
In short: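 Plates coated with MBP, then kinase reactions in Hepes pH 7.6 buffer with 10 mM MgCl2 and 1% DMSO were started by adding unlabeled plus γ-33P ATP (10 μM for Chk1 at 10 nM enzyme; 30 μM for Chk2 at 20 nM enzyme). After 1 h at room temperature, plates were washed and counted.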

SMILES	pIC50
CC(C)(C)OC(=O)N1CCN(C(=O)c2nc(-c3cccc(C(=O)NCc4ccccc4)c3)cnc2N)CC1 [Example 592, 1,1-dimethylethyl 4-{[3-amino-6-(3-{[(phenylmethyl)amino]carbonyl}phenyl)pyrazin-2-yl]carbonyl}piperazine-1-carboxylate]	≤ 5.00
Nc1ncc(-c2cccc(C(=O)NCc3ccccc3)c2)nc1C(=O)N1CCNCC1 [Example 593, 3-[5-amino-6-(piperazin-1-ylcarbonyl)pyrazin-2-yl]-N-(phenylmethyl)benzamide]	≤ 5.00
Nc1ncc(-c2cccc(C(=O)NCc3ccccc3)c2)nc1C(=O)N[C@@H](CCC(=O)O)C(=O)O [Example 594, N-{[3-amino-6-(3-{[(phenylmethyl)amino]carbonyl}phenyl)pyrazin-2-yl]carbonyl}glutamic acid]	5.00 to 6.00
COCc1nnc(-c2nc(-c3cccc(CN[C@H]4CCc5ccccc54)c3)cnc2N)[nH]1 [Example 595, 5-(3-{[(1S)-2,3-dihydro-1H-inden-1-ylamino]methyl}phenyl)-3-{5-[(methyloxy)methyl]-4H-1,2,4-triazol-3-yl}pyrazin-2-amine]	5.00 to 6.00
Nc1ncc(-c2cccc(CN[C@H]3CCc4ccccc43)c2)nc1-c1nc(-c2cccnc2)n[nH]1 [Example 596, 5-(3-{[(1S)-2,3-dihydro-1H-inden-1-ylamino]methyl}phenyl)-3-(3-pyridin-3-yl-1H-1,2,4-triazol-5-yl)pyrazin-2-amine]	> 7.30
CNCCCNC(=O)c1nc(-c2cccc(CN[C@H]3CCc4ccccc43)c2)cnc1N [Example 597, 3-amino-6-(3-{[(1S)-2,3-dihydro-1H-inden-1-ylamino]methyl}phenyl)-N-[3-(methylamino)propyl]pyrazine-2-carboxamide]	> 7.30
Nc1ncc(-c2cccc(CN[C@H]3CCc4ccccc43)c2)nc1C(=O)NCCCN1CCCC1 [Example 598, 3-amino-6-(3-{[(1S)-2,3-dihydro-1H-inden-1-ylamino]methyl}phenyl)-N-(3-pyrrolidin-1-ylpropyl)pyrazine-2-carboxamide]	5.00 to 6.00
COc1ccc(N/N=C(\C)c2nc(-c3cccc(C(=O)NCc4ccccc4)c3)cnc2N)cc1 [Example 599, 3-(5-amino-6-{(1E)-N-[4-(methyloxy)phenyl]ethanehydrazonoyl}pyrazin-2-yl)-N-(phenylmethyl)benzamide]	5.00 to 6.00
C/C(=N\Nc1ccc(C(C)C)cc1)c1nc(-c2cccc(C(=O)NCc3ccccc3)c2)cnc1N [Example 600, 3-(5-amino-6-{(1E)-N-[4-(1-methylethyl)phenyl]ethanehydrazonoyl}pyrazin-2-yl)-N-(phenylmethyl)benzamide]	5.00 to 6.00
C/C(=N\Nc1nc2ccccc2s1)c1nc(-c2cccc(C(=O)NCc3ccccc3)c2)cnc1N [Example 601, 3-{5-amino-6-[(1E)-N-1,3-benzothiazol-2-ylethanehydrazonoyl]pyrazin-2-yl}-N-(phenylmethyl)benzamide]	≤ 5.00
C/C(=N\Nc1ccc(C)cc1)c1nc(-c2cccc(C(=O)NCc3ccccc3)c2)cnc1N [Example 602, 3-{5-amino-6-[(1E)-N-(4-methylphenyl)ethanehydrazonoyl]pyrazin-2-yl}-N-(phenylmethyl)benzamide]	≤ 5.00
C/C(=N\Nc1ccc(Cl)cc1)c1nc(-c2cccc(C(=O)NCc3ccccc3)c2)cnc1N [Example 603, 3-{5-amino-6-[(1E)-N-(4-chlorophenyl)ethanehydrazonoyl]pyrazin-2-yl}-N-(phenylmethyl)benzamide]	≤ 5.00
C/C(=N\N(C)c1ccccc1)c1nc(-c2cccc(C(=O)NCc3ccccc3)c2)cnc1N [Example 604, 3-{5-amino-6-[(1E)-N-methyl-N-phenylethanehydrazonoyl]pyrazin-2-yl}-N-(phenylmethyl)benzamide]	5.00 to 6.00
C/C(=N\NCCO)c1nc(-c2cccc(C(=O)NCc3ccccc3)c2)cnc1N [Example 605, 3-{5-amino-6-[(1E)-N-(2-hydroxyethyl)ethanehydrazonoyl]pyrazin-2-yl}-N-(phenylmethyl)benzamide]	6.00 to 7.30
Nc1ncc(-c2cccc(CO)c2)nc1-c1nc(-c2ccncc2)n[nH]1 [Example 606, {3-[5-amino-6-(3-pyridin-4-yl-1H-1,2,4-triazol-5-yl)pyrazin-2-yl]phenyl}methanol]	> 7.30
Nc1ncc(-c2cccc(CO)c2)nc1-c1nc(C2CCNCC2)n[nH]1 [Example 607, {3-[5-amino-6-(3-piperidin-4-yl-1H-1,2,4-triazol-5-yl)pyrazin-2-yl]phenyl}methanol]	5.00 to 6.00
Nc1nccc(-c2nc(-c3cccc(C(=O)NCc4ccccc4)c3)cnc2N)n1 [Example 608, 3-[5-amino-6-(2-aminopyrimidin-4-yl)pyrazin-2-yl]-N-(phenylmethyl)benzamide]	5.00 to 6.00
CN(C)c1nccc(-c2nc(-c3cccc(C(=O)NCc4ccccc4)c3)cnc2N)n1 [Example 609, 3-{5-amino-6-[2-(dimethylamino)pyrimidin-4-yl]pyrazin-2-yl}-N-(phenylmethyl)benzamide]	≤ 5.00
CCOC(=O)[C@H](Cc1ccc(O)cc1)NC(=O)c1nc(-c2cccc(C(=O)NCc3ccccc3)c2)cnc1N [Example 610, ethyl N-{[3-amino-6-(3-{[(phenylmethyl)amino]carbonyl}phenyl)pyrazin-2-yl]carbonyl}-L-tyrosinate]	≤ 5.00
Nc1ncc(-c2cccc(C(=O)NCc3ccccc3)c2)nc1C(=O)N[C@H](Cc1ccc(O)cc1)C(=O)O [Example 611, N-{[3-amino-6-(3-{[(phenylmethyl)amino]carbonyl}phenyl)pyrazin-2-yl]carbonyl}-D-tyrosine]	≤ 5.00
CC(C)(C)OC(=O)NCCCNC(=O)c1nc(-c2cccc(C(=O)NCc3ccccc3)c2)cnc1N [Example 612, 1,1-dimethylethyl [3-({[3-amino-6-(3-{[(phenylmethyl)amino]carbonyl}phenyl)pyrazin-2-yl]carbonyl}amino)propyl]carbamate]	≤ 5.00
NCCCNC(=O)c1nc(-c2cccc(C(=O)NCc3ccccc3)c2)cnc1N [Example 613, 3-amino-N-(3-aminopropyl)-6-(3-{[(phenylmethyl)amino]carbonyl}phenyl)pyrazine-2-carboxamide]	6.00 to 7.30
Nc1ncc(-c2cccc(C(=O)NCc3ccccc3)c2)nc1C(=O)N1CCCC(C(=O)O)C1 (centres unmarked) [Example 614, 1-{[3-amino-6-(3-{[(phenylmethyl)amino]carbonyl}phenyl)pyrazin-2-yl]carbonyl}piperidine-3-carboxylic]	≤ 5.00
CC(C)(C)OC(=O)NCCNC(=O)c1nc(-c2cccc(C(=O)NCc3ccccc3)c2)cnc1N [Example 615, 1,1-dimethylethyl [2-({[3-amino-6-(3-{[(phenylmethyl)amino]carbonyl}phenyl)pyrazin-2-yl]carbonyl}amino)ethyl]carbamate]	≤ 5.00
NCCNC(=O)c1nc(-c2cccc(C(=O)NCc3ccccc3)c2)cnc1N [Example 616, 3-amino-N-(2-aminoethyl)-6-(3-{[(phenylmethyl)amino]carbonyl}phenyl)pyrazine-2-carboxamide]	6.00 to 7.30
CC(C)(C)OC(=O)NC1CCN(C(=O)c2nc(-c3cccc(C(=O)NCc4ccccc4)c3)cnc2N)CC1 [Example 617, 1,1-dimethylethyl (1-{[3-amino-6-(3-{[(phenylmethyl)amino]carbonyl}phenyl)pyrazin-2-yl]carbonyl}piperidin-4-yl)carbamate]	≤ 5.00

From patent publication US7704995B2 (Exelixis, Inc., priority 2003, dated 2010)
